Our source for the IC50 values is patent publication US10144734B2, “Substituted pyrazolo[1,5-A]pyridine compounds as RET kinase inhibitors” (Array BioPharma, Inc., priority 2016, dated 2018).

pIC50: −log10 of the molar value.

This assay addresses HEK-293 cells expressing a Kif5b-RET fusion protein (Homo sapiens, UniProt P07949). The assay can be described thus: cell-based.

Chain of HEK-293 cells expressing a Kif5b-RET fusion protein (P07949 29-1114 limits assumed): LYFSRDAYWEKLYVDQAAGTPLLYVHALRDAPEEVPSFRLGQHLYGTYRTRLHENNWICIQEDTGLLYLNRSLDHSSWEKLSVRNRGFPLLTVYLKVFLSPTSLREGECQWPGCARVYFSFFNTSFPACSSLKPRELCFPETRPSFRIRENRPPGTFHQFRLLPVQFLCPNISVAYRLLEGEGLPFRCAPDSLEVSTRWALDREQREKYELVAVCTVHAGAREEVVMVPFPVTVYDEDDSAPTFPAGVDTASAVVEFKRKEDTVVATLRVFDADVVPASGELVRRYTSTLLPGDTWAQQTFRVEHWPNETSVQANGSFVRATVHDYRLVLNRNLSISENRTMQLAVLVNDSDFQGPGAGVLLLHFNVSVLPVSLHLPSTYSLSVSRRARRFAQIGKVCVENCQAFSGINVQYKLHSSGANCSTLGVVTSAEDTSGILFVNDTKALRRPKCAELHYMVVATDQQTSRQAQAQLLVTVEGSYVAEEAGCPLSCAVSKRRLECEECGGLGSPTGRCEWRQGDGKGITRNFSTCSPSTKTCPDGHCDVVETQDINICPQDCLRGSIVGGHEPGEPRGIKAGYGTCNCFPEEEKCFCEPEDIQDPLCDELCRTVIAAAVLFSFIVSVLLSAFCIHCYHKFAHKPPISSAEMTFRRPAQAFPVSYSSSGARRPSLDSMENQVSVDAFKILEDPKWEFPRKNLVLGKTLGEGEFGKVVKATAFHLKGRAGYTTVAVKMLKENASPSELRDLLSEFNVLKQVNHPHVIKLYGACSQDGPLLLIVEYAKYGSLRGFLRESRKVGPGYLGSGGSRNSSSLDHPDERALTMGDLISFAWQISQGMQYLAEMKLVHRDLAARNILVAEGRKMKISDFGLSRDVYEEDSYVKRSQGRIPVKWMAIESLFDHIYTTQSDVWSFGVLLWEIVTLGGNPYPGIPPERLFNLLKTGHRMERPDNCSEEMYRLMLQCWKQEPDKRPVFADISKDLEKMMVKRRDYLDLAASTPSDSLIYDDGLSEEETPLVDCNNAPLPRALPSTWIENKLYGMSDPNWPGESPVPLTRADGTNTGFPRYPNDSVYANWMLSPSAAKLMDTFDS

Regarding `CCOc1cc(-c2ccc(N3C[C@H]4C[C@@H](C3)[C@H]4Nc3nc(C)ccc3F)nc2)c2c(C#N)cnn2c1` [Example 377, 6-ethoxy-4-(6-((1R,5 S,6r)-6-((3-fluoro-6-methylpyridin-2-yl)amino)-3-azabicyclo[3.1.1]heptan-3-yl)pyridin-3-yl)pyrazolo[1,5-a]pyridine-3-carbonitrile], the pIC50 (in general, −log10 of the IC50, conventionally taken in molar units) is 7.40.
